Measurements reported in ChEMBL document CHEMBL3882246, “Benzoxazole kinase inhibitors and methods of use” (2010).
pEC50: −log10 of the molar value. Activity calls are given as the source filed them. The calls are words filed in the database; no cut-off is given here.

Assays:
[1] = Antiproliferative activity against human PC3 cells measured after 72 hrs by Alamar blue dye-based fluorescence analysis; type: functional, cell-based, PC-3; conditions: for pEC50: Homo sapiens, PC-3, 72 h
[2] = Antiproliferative activity against human MIAPaCa2 cells measured after 72 hrs by Alamar blue dye-based fluorescence analysis; type: functional, cell-based; conditions: mia paca-2
[3] = Antiproliferative activity against human BxPC3 cells measured after 72 hrs by Alamar blue dye-based fluorescence analysis; type: functional, cell-based; conditions: bxpc-3
[4] = Antiproliferative activity against human 786-O cells measured after 72 hrs by Alamar blue dye-based fluorescence analysis; type: functional, cell-based; conditions: 786-0
[5] = Antiproliferative activity against human HepG2 cells measured after 72 hrs by Alamar blue dye-based fluorescence analysis; type: functional, cell-based
[6] = Antiproliferative activity against human HCT116 cells measured after 72 hrs by Alamar blue dye-based fluorescence analysis; type: functional, cell-based; conditions: hct-116
[7] = Antiproliferative activity against human LNCAP cells measured after 72 hrs by Alamar blue dye-based fluorescence analysis; type: functional, cell-based
[8] = system: U-87MG ATCC; assay: Inhibition of mTORC1/2 in human U87 cells assessed as inhibition of Akt-phosphorylation at S473 residue by Western blot analysis; type: cell-based
[9] = target: Ribosomal protein S6 kinase beta-1 (Homo sapiens) (UniProt P23443); assay: Inhibition of mTOR pS6K in human U87 cells assessed as inhibition of 4EBP1 phosphorylation by Western blot analysis; type: cell-based; conditions: U-87MG ATCC
Sequence of Ribosomal protein S6 kinase beta-1 (Homo sapiens) (P23443 whole entry, looked up): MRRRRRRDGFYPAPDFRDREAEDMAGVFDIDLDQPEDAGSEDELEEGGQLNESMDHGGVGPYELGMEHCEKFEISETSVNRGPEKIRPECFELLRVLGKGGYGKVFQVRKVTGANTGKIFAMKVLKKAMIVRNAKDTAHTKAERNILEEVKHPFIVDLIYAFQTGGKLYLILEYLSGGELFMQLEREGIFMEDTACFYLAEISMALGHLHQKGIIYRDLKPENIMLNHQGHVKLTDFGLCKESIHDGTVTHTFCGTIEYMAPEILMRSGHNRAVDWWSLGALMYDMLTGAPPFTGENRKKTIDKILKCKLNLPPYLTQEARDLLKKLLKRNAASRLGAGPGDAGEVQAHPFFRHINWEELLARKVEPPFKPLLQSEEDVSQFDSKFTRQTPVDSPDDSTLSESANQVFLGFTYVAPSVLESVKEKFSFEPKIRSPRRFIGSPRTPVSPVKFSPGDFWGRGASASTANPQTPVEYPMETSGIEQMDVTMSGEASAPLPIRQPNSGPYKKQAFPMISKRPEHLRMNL

[10] = Toxicity in mouse xenografted with human U87 cells assessed as weight loss at 0.3 to 3 mg/kg measured after 14 days; type: organism-based, U-87MG ATCC; conditions: in vivo, 336 h
[11] = system: U-87MG ATCC; assay: Antitumor activity against human U87 cells xenografted in mouse assessed as tumor growth inhibition at 0.3 to 3 mg/kg measured after 14 days; type: functional, organism-based
[12] = target: Ribosomal protein S6 kinase beta-1 (Homo sapiens) (UniProt P23443); assay: Inhibition of mTOR pS6K in human U87 cells assessed as inhibition of RAS40 phosphorylation by Western blot analysis; type: cell-based; conditions: U-87MG ATCC
[13] = target: Serine/threonine-protein kinase mTOR (Homo sapiens) (UniProt P42345); assay: Inhibition of mTOR in human U87 cells assessed as reduction in pAKT phosphorylation at residue […] by Western blot method; type: cell-based; conditions: U-87MG ATCC
[14] = target: Serine/threonine-protein kinase mTOR (Homo sapiens) (UniProt P42345); assay: Inhibition of mTOR in human U87 cells assessed as reduction in p4EBP1 phosphorylation by Western blot method; type: cell-based; conditions: U-87MG ATCC
[15] = target: Serine/threonine-protein kinase mTOR (Homo sapiens) (UniProt P42345); assay: Inhibition of mTOR in human U87 cells assessed as reduction in pRAS40 phosphorylation by Western blot method; type: cell-based; conditions: U-87MG ATCC
[16] = Antiproliferative activity against human HT1080 cells measured after 72 hrs by Alamar blue dye-based fluorescence analysis; type: functional, cell-based; conditions: ht-1080
[17] = Antiproliferative activity against human SKHEP1 cells measured after 72 hrs by Alamar blue dye-based fluorescence analysis; type: functional, cell-based; conditions: sk-hep1
[18] = Antiproliferative activity against human 143B cells measured after 72 hrs by Alamar blue dye-based fluorescence analysis; type: functional, cell-based
[19] = Antiproliferative activity against human BT474 cells measured after 72 hrs by Alamar blue dye-based fluorescence analysis; type: functional, cell-based; conditions: bt-474
[20] = Antiproliferative activity against human MCF7-218 cells measured after 72 hrs by Alamar blue dye-based fluorescence analysis; type: functional, cell-based
[21] = Antiproliferative activity against human MCF7-FL cells measured after 72 hrs by Alamar blue dye-based fluorescence analysis; type: functional, cell-based
[22] = Antiproliferative activity against human COLO205 cells measured after 72 hrs by Alamar blue dye-based fluorescence analysis; type: functional, cell-based; conditions: colo 205

Question: With `CC(=O)N1CCC(n2nc(-c3ccc4oc(N)nc4c3)c3c(N)ncnc32)CC1` as the molecule, how does the pEC50 [1] read?
Answer: > 5.00

Question: With `CC(=O)Nc1noc2cc(-c3nn(C(C)C)c4ncnc(N)c34)ccc12` as the molecule, how does the pEC50 [1] read?
Answer: < 5.00

Question: For `O=c1[nH]cc(F)c(=O)[nH]1` [FLUOROURACIL], which IC50 [2] is on record?
Answer: Active

Question: And the IC50 [3]?
Answer: Active

Question: What about the IC50 [4] of the same molecule?
Answer: Active

Question: What about the IC50 [5] of the same molecule?
Answer: Active

Question: What about the IC50 [6] of the same molecule?
Answer: Active

Question: Which IC50 [7] does the source give for `CC(=O)O[C@H]1C(=O)[C@@]2(C)[C@H]([C@H](OC(=O)c3ccccc3)[C@]3(O)C[C@H](OC(=O)[C@H](O)[C@@H](NC(=O)c4ccccc4)c4ccccc4)C(C)=C1C3(C)C)[C@]1(OC(C)=O)CO[C@@H]1C[C@@H]2O` [PACLITAXEL] here?
Answer: Active

Question: With `Nc1nc2cc(-c3nn(C4CCC(N5CCOCC5)CC4)c4ncnc(N)c34)ccc2o1` (configuration not stated) as the molecule, how does the pEC50 [1] read?
Answer: > 6.00

Question: With `CC(C)n1nc(-c2ccc3nc(N)oc3c2)c2c(N)ncnc21` as the molecule, how does the pEC50 [1] read?
Answer: > 5.00

Question: With `Nc1nc2cc(-c3nn(C4CCOCC4)c4ncnc(N)c34)ccc2o1` as the molecule, how does the pEC50 [1] read?
Answer: > 7.00

Question: With `Nc1nc2cc(-c3cn(C4CCOCC4)c4ncnc(N)c34)ccc2o1` as the molecule, how does the pEC50 [1] read?
Answer: > 7.00

Question: With `CC(=O)Nc1nc2cc(-c3nn(C(C)C)c4ncnc(N)c34)ccc2o1` as the molecule, how does the pEC50 [1] read?
Answer: > 6.00

Question: With `CC(C)n1nc(-c2ccc3c(N)noc3c2)c2c(N)ncnc21` as the molecule, how does the pEC50 [1] read?
Answer: < 5.00

Question: With `CC(C)n1nc(-c2ccc3onc(N)c3c2)c2c(N)ncnc21` as the molecule, how does the pEC50 [1] read?
Answer: < 5.00

Question: With `CC(C)n1nc(-c2ccc3oc(N)nc3c2)c2c(N)ncnc21` [SAPANISERTIB] as the molecule, how does the inhibition [8] read?
Answer: Dose-dependent effect

Question: What about the inhibition [9] of the same molecule?
Answer: Active

Question: And the Activity [10]?
Answer: Non-Toxic

Question: And the “growth inhibition (GI)” value [11]?
Answer: Active

Question: What about the inhibition [12] of the same molecule?
Answer: Active

Question: And the inhibition [13]?
Answer: Active

Question: And the inhibition [14]?
Answer: Active

Question: And the inhibition [15]?
Answer: Active

Question: With `CC(C)n1cc(-c2ccc3oc(N)nc3c2)c2c(N)ncnc21` as the molecule, how does the pEC50 [1] read?
Answer: > 7.00

Question: Which results are given for `COc1cccc2c1C(=O)c1c(O)c3c(c(O)c1C2=O)C[C@@](O)(C(=O)CO)C[C@@H]3O[C@H]1C[C@H](N)[C@H](O)[C@H](C)O1` [DOXORUBICIN]?
Answer: IC50 [16]: Active; IC50 [17]: Active; IC50 [18]: Active; IC50 [19]: Active; IC50 [20]: Active; IC50 [21]: Active

Question: With `CCc1c2c(nc3ccc(OC(=O)N4CCC(N5CCCCC5)CC4)cc13)-c1cc3c(c(=O)n1C2)COC(=O)[C@]3(O)CC` [IRINOTECAN] as the molecule, how does the IC50 ([1]; pc-3) read?
Answer: Active

Question: And the IC50 [22]?
Answer: Active
